Legend:
[1] = biological target: Cholinesterase (Homo sapiens, UniProt P06276); assay: Inhibition of human serum BuChE using butyrylthiocholine iodide as substrate preincubated with enzyme for 10 mins followed by substrate addition and measured by Ellman's method; format: cell-free
[2] = biological target: T1, Acetylcholinesterase (Homo sapiens, UniProt P22303)
Description: Inhibition of human recombinant AChE using acetylthiocholine iodide as substrate preincubated with enzyme for 10 mins followed by substrate addition and measured by Ellman's method

[3] = biological target: T1, Acetylcholinesterase; assay: Potency index, ratio of rivastigmine IC50 to test compound IC50 for human recombinant AChE using acetylthiocholine iodide as substrate preincubated with enzyme for 10 mins followed by substrate addition and measured by Ellman's method

Sequence of Cholinesterase (P06276 whole entry): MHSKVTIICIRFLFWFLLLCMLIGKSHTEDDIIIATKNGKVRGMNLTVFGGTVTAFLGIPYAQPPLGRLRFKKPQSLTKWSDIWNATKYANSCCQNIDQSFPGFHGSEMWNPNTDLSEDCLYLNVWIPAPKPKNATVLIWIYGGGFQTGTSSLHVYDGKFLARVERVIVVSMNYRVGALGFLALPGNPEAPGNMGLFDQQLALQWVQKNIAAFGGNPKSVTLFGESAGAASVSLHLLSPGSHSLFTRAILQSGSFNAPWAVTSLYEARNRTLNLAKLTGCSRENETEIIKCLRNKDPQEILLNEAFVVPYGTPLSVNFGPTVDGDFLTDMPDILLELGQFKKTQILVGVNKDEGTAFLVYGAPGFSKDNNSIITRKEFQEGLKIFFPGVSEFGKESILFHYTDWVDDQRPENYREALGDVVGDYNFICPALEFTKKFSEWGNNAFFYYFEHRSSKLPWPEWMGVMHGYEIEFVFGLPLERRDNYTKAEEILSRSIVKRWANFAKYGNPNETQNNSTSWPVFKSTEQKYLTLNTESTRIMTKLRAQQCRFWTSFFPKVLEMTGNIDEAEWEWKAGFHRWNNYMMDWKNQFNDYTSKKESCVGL
T1 sequence (P22303 whole entry): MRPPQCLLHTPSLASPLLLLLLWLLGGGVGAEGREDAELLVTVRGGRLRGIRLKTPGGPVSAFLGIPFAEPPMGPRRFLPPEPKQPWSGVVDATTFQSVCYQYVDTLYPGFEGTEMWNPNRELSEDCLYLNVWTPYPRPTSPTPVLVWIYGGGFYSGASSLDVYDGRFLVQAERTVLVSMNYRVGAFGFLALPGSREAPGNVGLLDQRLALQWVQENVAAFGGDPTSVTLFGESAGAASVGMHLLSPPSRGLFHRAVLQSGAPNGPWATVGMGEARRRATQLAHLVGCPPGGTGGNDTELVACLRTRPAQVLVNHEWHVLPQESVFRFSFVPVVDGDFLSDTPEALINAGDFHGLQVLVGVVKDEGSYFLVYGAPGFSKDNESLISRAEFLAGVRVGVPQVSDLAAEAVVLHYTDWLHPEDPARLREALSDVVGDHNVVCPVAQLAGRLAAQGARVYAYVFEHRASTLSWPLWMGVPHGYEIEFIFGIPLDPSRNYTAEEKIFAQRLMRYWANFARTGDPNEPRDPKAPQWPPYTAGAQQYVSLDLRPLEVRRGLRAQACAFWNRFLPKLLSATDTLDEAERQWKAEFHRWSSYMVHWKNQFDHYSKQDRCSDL

Row | SMILES | IC50 [1] | Ki [1] | IC50 [2] | Ki [2] | Ratio IC50 [3]
1 | Cc1ccc(S(=O)(=O)SCc2ccc(F)cc2)cc1 | 303 nM | 208 nM | 313 nM | 327 nM | 
2 | Cc1ccc(S(=O)(=O)SCc2ccc(C(C)C)cc2)cc1 | 84.5 nM | 37.9 nM | 11.9 nM | 25.6 nM | 5
3 | COc1ccc(CSS(=O)(=O)c2ccc(C)cc2)cc1 | 202 nM | 251 nM | 488 nM | 219 nM | 
4 | Cc1ccc(S(=O)(=O)SCc2ccccc2)cc1 | 318 nM | 218 nM | 517 nM | 390 nM | 
5 | Cc1ccc(S(=O)(=O)SCc2ccc(C#N)cc2)cc1 | 203 nM | 201 nM | 196 nM | 166 nM | 
6 | Cc1ccc(S(=O)(=O)SCc2ccc(Cl)cc2)cc1 | 315 nM | 199 nM | 478 nM | 714 nM | 
7 | Cc1ccc(S(=O)(=O)SCc2ccc(OC(F)(F)F)cc2)cc1 | 53.3 nM | 17.5 nM | 129 nM | 198 nM | 
8 | Cc1ccc(S(=O)(=O)SCc2ccc([N+](=O)[O-])cc2)cc1 | 214 nM | 303 nM | 212 nM | 251 nM | 
9 | Cc1ccc(S(=O)(=O)SCc2ccc(C(F)(F)F)cc2)cc1 | 118 nM | 103 nM | 86.6 nM | 148 nM | 

— ChEMBL document CHEMBL4819136, “Design and synthesis of garlic-related unsymmetrical thiosulfonates as potential Alzheimer's disease therapeutics: In vitro and in silico study” (Bioorg Med Chem, 2021)
